Reference: patent US20100240746A1, “STEREOISOMERS OF TRICYCLODECAN-9-YL-XANTHOGENATE” (LUMAVITA AG, priority 2007, published 2010)
Converted amounts (≈) assume the structure as drawn.

How the values were obtained:
[1] = system: HPV-31 specific RNA in HPV-31-infected CIN612 9E keratinocytes; experiment: Long-term study, HPV-31 specific RNA (Northern Blot); type: cell-based, human papilloma virus
Method: HPV-31 infected cells (3×10^6) were dispensed into 14.5 cm dishes containing fresh E medium and 1×10^6 cells of mitomycin C-treated 3T3 fibroblast feeders. The dishes were incubated in a CO2 incubator under 5% CO2 at 37° C. in 100% humidity. Human A431 epithelial cancer cells were used as HPV-uninfected negative controls. After 6 hr incubation, the cell culture medium was removed and fresh E medium containing 0.85 g/L NaHCO3 and a test compound at concentrations of 10 and 3.3 μg/mL, or control (interferon γ at 200 IU/mL) were added. For each concentration, 4 dishes were prepared. The dishes were incubated at 37° C. in a CO2 incubator. The culture medium was replaced to new E medium containing each concentration of the test compound or control in every 72 hrs. After seven days, or when untreated cells became confluent, one dish of each group was harvested for DNA/RNA extraction, followed by Southern/Northern Blot analysis; and one dish was trypsinized, cell number were determined and cells were seeded in three new dishes, treated and cultured as described above. This procedure was repeated for 9 passages. During these passages, morphology of cells and cell density were monitored.
Effect on HPV-31 specific DNA and RNA: DNA and RNA were analyzed in Southern and Northern Blot gels for HPV-31 specific sequences. X-ray films were scanned and optical densities of HPV-31 specific DNA and major mRNA species were integrated. Time curves were established by plotting integrated values against number of passages for each treatment dose. The T50 (time required to reduce the level to 50% of control) was determined from the time curves from crossing points of time curves with a line parallel to the x-axis corresponding to 50% of integrals of untreated control sample.

[2] = system: HPV-31-infected CIN612 9E keratinocytes; experiment: Short-term study, effect on cell proliferation of HPV-31-infected keratinocytes; type: cell-based, human papilloma virus; conditions: Human papillomavirus, Keratinocyte; 72 hrs, 37° C.; 50% of uninhibited growth
Method: The inhibitory activities of optically active (−)-enantiomer 1A against human papilloma virus were evaluated using HPV-31-infected CIN612 9E keratinocytes (Meyers et al., Science 1992, 257, 971-973).
Effect on cell proliferation. HPV-31 infected cells were seeded in 96-well plates containing 1×10^6 mitomycin C treated 3T3 cells (1×10^4 cells/well), at a density of 0.5×10^6 cells per plate (0.5×10^4 cells/well) in E medium. After the plates were incubated in a CO2 incubator under 5% CO2 at 37° C. in 100% humidity for six hrs, the cell culture medium was removed and fresh E medium containing 0.85 g/L NaHCO3 and a test compound at a series of concentrations (0, 0.5, 1, 2, 4, 8, 16, 32, 64, and 128 μg/mL), or positive control (interferon γ at 200 IU/mL) was added. […] After the plates were dried on blotting paper upside down overnight, 0.1 mL of ethanol/acetic acid (99:1) was added to each well and optical density at 595 nm was determined in an ELISA reader.
Dose response curves were established by plotting growth against concentrations of the test compound or control. ICso values were determined from the dose response curves from crossing points of the dose response curves with a line parallel to the x-axis corresponding to 50% of uninhibited growth.

Q: `S=C(S)OC1CC2CC1C1CCCC21` (single isomer, unassigned; (-)) [(−)-Enantiomer 1A, (−)-O-exo/C-exo-tricyclo[5.2.1.0^2,6]-dec-9-yl-xanthic acid] was tested. Which “T50 RNA” value ([1]; 3.3 μg/mL) did it give?
A: 3.28 passages

Q: What about the “HPV-31 specific RNA content” value ([1]; 3.3 μg/mL or 10 μg/mL) of the same molecule?
A: continuous reductions

Q: What about the “T50 RNA” value ([1]; 10 μg/mL, listed as (−)-enantiomer 1A) of the same molecule?
A: < 1 passages

Q: What about the “T50 RNA” value ([1]; 10 μg/mL, listed as Cmpd 1A) of the same molecule?
A: <1 passages

Q: And the mrna remaining at 10 µg/mL ([1]; Homo sapiens, Keratinocyte, 10 μg/mL, after 9 passages, read-out: viral RNA remaining)?
A: < 1%

Q: And the EC50 [2]?
A: 16 µg/mL (≈ 70.1 µM)
